According to patent US6881577B2, “Method for improving transfection efficiency” (Max-Delbrück-Centrum für Molekulare Medizin, priority 2000, dated 2005):

Tests used:
[1] = system: human colon carcinoma cells (HCT 116); assay: Transfection of HCT 116 cells with plasmid DNA/peptide complexes (with or without LIPOFECTIN), luciferase reporter gene expression; format: cell-based
Description: Complexes consisting in plasmid DNA, peptide and lipid were formed and used in transfection experiments of human colon carcinoma cells (HCT 116) in vitro. The luciferase reporter gene was used in order to measure the transfection efficiency.
In addition to the construction of the mentioned K16 peptides the invention consists in the construction of DNA-peptide-lipid-complexes. A critical issue is thereby the composition of the complexes through the selection of an appropriate peptide to DNA charge ratio as well as an appropriate amount of the lipid. The procedure of complex formation (involving concentrations, volume, buffer type, incubation time and the order by which the elements are sequentially added to the mixture, see FIGS. 1-3 and 4-6) is also a critical factor determining the transfection efficiency of the system.
Based on the above described procedure for the optimization of DNA-peptide-lipid-complexes different complexes containing plasmid DNA, the K16-CYC peptide and cationic liposome (LIPOFECTIN®) were formed and subsequently used in transfection experiments of HCT 116 cells.
Complexes were formed containing plasmid DNA, the K16-VprN peptide and cationic liposome (LIPOFECTIN®) and subsequently used in transfection experiments of HCT 116 cells.
In both applications, the K16-mVprN peptide was used as a control peptide instead of the K16-VprN peptide.

[2] = Dynamic light scattering of peptide/DNA complexes (apparent size, light scattering intensity); format: physicochemical; details: for relative size of the complexes on dilution: peptide/DNA complexes diluted up to 1:16, FIGS. 13 and 14
Experimental: In order to exclude the possibility that the observed enhancement of the transfection efficiency was mainly related to a more favorable complex formation process when using the K16-VprN peptide, size measurements (FIG. 11) and the determination of the relative particle number (FIG. 12) using dynamic light scattering were performed. […] Indeed, at a peptide to DNA charge ratio of 3 the K16-VprN peptide generates a three-fold increase of the light scattering intensity and an increase of the reporter gene expression of at least 100-times, as compared to K16-mVprN. At a peptide to DNA charge ratio of 9 the light scattering intensity increases twice as compared to charge ratio 3. However, in these conditions the reporter gene expression only increases 10 fold.
The complexes were subsequently diluted up to 1:16 and subjected to dynamic light scattering measurements.

[3] = peptide/DNA complex without lipid, FIG. 10

Substance | reporter gene expression following transfection, compared to the K16-NLS peptide ([1]; complexes of plasmid DNA, peptide and LIPOFECTIN (0.5 or 1 μl), FIGS. 7 and 8) | relative size of the complexes on dilution ([2]; dynamic light scattering) | increase of the reporter gene expression compared to K16-mVprN ([1]; peptide to DNA charge ratio of 3, without lipid, FIG. 10) | increase of the reporter gene expression ([1]; peptide to DNA charge ratio of 9, without lipid, FIG. 10) | amount of peptide giving the highest gene expression, less than for K16-mVprN [1, 3] | increase of the maximum reporter gene expression level compared to K16-mVprN [1, 3] | reporter gene expression compared to the control peptide K16-mVprN ([1]; with and without LIPOFECTIN, FIGS. 9 and 10) | particle size of DNA complexes compared to K16-mVprN ([2]; dynamic light scattering, FIG. 11) | increase of the light scattering intensity compared to K16-mVprN ([2]; peptide to DNA charge ratio of 3, FIG. 12) | increase of light scattering intensity compared to charge ratio 3 ([2]; peptide to DNA charge ratio of 9, FIG. 12)
-VKLKVYPLKKKRKP- [K16-CYC] | dramatic increase |  |  |  |  |  |  |  |  | 
KKKKKKKKKKKKKKKKGGGNEATLELLPELKNPAVRHF (Synthetic peptide sequence, K16-mVprN, that carries 16 lysine residues for the binding of the peptide to the plasmid DNA.) |  | remains nearly constant |  |  |  |  |  |  |  | 
KKKKKKKKKKKKKKKKGGGCNEWTLELLEELKNEAVRHF [K16-VprN] |  | remains nearly constant | at least 100 times | 10 fold | 12 times | 10 fold | significant increase | no significant difference | three-fold | twice
